Values quoted from earlier work, collected in patent US20140329781A1, “METHODS FOR TREATING CARDIOVASCULAR DISORDER” (WOCKHARDT LIMITED, priority 2011, published 2014).

Assays:
[1] = water
albumin = albumin (Homo sapiens, UniProt P02768)
Chain of albumin (P02768 25-609, species assumed): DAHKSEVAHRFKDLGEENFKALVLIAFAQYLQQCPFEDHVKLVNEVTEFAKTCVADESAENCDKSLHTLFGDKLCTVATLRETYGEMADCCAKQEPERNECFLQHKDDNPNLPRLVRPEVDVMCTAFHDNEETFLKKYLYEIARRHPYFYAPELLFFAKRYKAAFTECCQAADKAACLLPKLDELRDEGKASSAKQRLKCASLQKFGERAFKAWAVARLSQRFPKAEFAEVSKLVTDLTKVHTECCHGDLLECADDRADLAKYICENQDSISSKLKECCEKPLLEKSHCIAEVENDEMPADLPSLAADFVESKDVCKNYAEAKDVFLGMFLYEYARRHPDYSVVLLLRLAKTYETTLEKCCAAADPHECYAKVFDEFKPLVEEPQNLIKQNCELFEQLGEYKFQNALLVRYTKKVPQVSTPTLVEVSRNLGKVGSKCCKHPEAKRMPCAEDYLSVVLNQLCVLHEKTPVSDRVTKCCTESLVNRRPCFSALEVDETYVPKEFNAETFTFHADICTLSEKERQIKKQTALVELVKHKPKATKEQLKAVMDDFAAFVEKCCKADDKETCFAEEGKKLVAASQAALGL

COC(=O)[C@H](c1ccccc1Cl)N1CCc2sccc2C1 [Clopidogrel]
bioavailability (in words) (extensive first pass metabolism in the liver): low | solubility (in words) [1]: poorly water-soluble | protein bound to albumin (albumin): 94-98%

COCCc1ccc(OCC(O)CNC(C)C)cc1 (centres unmarked) [Metoprolol]
bioavailability (incomplete due to extensive first pass metabolism): about 50% | solubility (in words) [1]: highly soluble
